What was measured:
[1] = target: T1, Muscarinic acetylcholine receptor M1 (Homo sapiens, UniProt P11229); assay: Positive allosteric modulation at muscarinic acetylcholine receptor M1(unknown origin)
T1 sequence (P11229 whole entry): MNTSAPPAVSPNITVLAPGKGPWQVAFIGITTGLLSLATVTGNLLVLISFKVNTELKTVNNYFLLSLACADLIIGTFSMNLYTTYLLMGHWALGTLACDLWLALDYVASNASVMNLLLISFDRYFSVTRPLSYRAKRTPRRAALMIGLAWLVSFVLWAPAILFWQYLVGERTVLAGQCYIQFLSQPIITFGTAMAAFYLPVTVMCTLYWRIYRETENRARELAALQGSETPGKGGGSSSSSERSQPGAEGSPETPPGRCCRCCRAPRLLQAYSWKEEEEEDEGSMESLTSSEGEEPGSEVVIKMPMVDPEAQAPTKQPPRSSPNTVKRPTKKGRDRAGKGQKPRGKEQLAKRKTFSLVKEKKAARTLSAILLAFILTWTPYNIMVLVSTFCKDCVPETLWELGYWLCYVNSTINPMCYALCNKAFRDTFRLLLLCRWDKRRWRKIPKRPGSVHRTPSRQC

[2] = target: T2, Muscarinic acetylcholine receptor M1 (Homo sapiens) (UniProt P11229); assay: Positive allosteric modulation at muscarinic acetylcholine receptor M1(unknown origin) relative to control
T2 sequence (whole entry): T1 sequence (P11229 whole entry)

| EC50 [1] [µM] | Emax [2] [%] | SMILES |
| --- | --- | --- |
| 3.2 | 86 | Cn1cc(-c2ccc(CN3C(=O)C4(OCCO4)c4ccccc43)c(F)c2)cn1 |
| 3.8 | 76 | CN1CCC2(C1)C(=O)N(Cc1ccc(-c3cnn(C)c3)cc1F)c1ccccc12 (centres undefined) |

From ChEMBL document CHEMBL2429785, “Substituted Benzylspiroindolin-2-one Analogues as Positive Allosteric Modulators of the Muscarinic Acetylcholine Receptor M1” (ACS Med Chem Lett, 2013)
